{
  "source": "patent US10073082B2",
  "about": "“Proteasome inhibition assay and methods of use” (UNIVERSITY HEALTH NETWORK, priority 2013, dated 2018)",
  "key": {"[1]": {"system": "IκB in peripheral blood monocytes", "experiment": "Flow cytometry assay, whole blood pretreated with effector: LPS induced degradation of IκB in monocytes", "type": "cell-based, human", "settings": "monocytes, whole blood pretreated with inhibitor 2 hours at 37° C., then LPS; within 10 minutes", "protocol": "Whole blood samples from normal human donors were collected. 100 μL aliquots of the whole blood were inserted into the bottom of 12×75 mm tubes. In order to reduce the potential for contamination of the sample with unfixed cells, blood was removed from the side of the tubes with a cotton swab. 1-2 μL of a proteasome effector was added to a first portion of the tubes and these tubes were incubated for 2 hours at 37° C. in a water bath. In this example, the proteasome effector was Bortezomib or MG-132, both proteasome inhibitors. Following pretreatment with the proteasome effector, 2 μL of 50 mg/mL stock solution (100 ng) of an IκB degradation agonist was added to the tubes and the tubes were incubated from 1 minute to 60 minutes at 37° C. in a water bath. In this example, the agonist was lipopolysaccharide (LPS). A second portion of the tubes were treated with the IκB degradation agonist and no proteasome effector. […]\n(§1) Following the above wash steps, the fixed and permeabilized cells were resuspended in 100 μL of cold Wash Buffer comprising antibodies to specific intracellular antigens (e.g., signaling targets including P-ERK, P-Akt, P-p38, P-SAPK, P-S6, and antibodies to IκB). […] The supernatant was aspirated and the cell pellet was resuspended in 350 μL of Resuspension Buffer (PerFix-P® kit) and analyzed on a flow cytometer (GALLIOS™) using a protocol with defined population gates and series of dual parameter histograms. A CD45-KO vs. SS dual parameter histogram was collected and a gate around the leukocyte population based on the CD45+ fluorescence and SS characteristics was drawn to exclude debris (CD45 negative events). […] The collected flow cytometric data was analyzed using KALUZA™ software.\nPhosphorylation of signaling pathways activated by LPS, including ERK, Akt (activated by PI3 Kinase), and the ribosomal S6 protein (a marker of protein synthesis) were also monitored together with the degradation of IκB. […] The degradation of IκB in cells pretreated with MG-132 or GDC-0941 was monitored by flow cytometry as described in Example 1. […]"}, "[2]": {"system": "IκB in peripheral blood lymphocytes", "experiment": "Flow cytometry assay, whole blood pretreated with effector: LPS induced degradation of IκB in lymphocytes", "type": "cell-based, human", "settings": "whole blood pretreated with inhibitor, then LPS", "protocol": "(§2) The assay generally comprises treating whole blood with an IκB degradation agonist and/or proteasome effector, fixing the blood cells, permeabilizing the fixed bloods cells, treating the fixed and permeabilized cells with an alcohol treatment to unmask intracellular phosphor-epitopes, and then staining the treated cells with antibodies for flow cytometry analysis.\n(§3) Whole blood samples from normal human donors were collected. 100 μL aliquots of the whole blood were inserted into the bottom of 12×75 mm tubes. In order to reduce the potential for contamination of the sample with unfixed cells, blood was removed from the side of the tubes with a cotton swab. […]\n(§4) Following the above wash steps, the fixed and permeabilized cells were resuspended in 100 μL of cold Wash Buffer comprising antibodies to specific intracellular antigens (e.g., signaling targets including P-ERK, P-Akt, P-p38, P-SAPK, P-S6, and antibodies to IκB). […] The supernatant was aspirated and the cell pellet was resuspended in 350 μL of Resuspension Buffer (PerFix-P® kit) and analyzed on a flow cytometer (GALLIOS™) using a protocol with defined population gates and series of dual parameter histograms. A CD45-KO vs. SS dual parameter histogram was collected and a gate around the leukocyte population based on the CD45+ fluorescence and SS characteristics was drawn to exclude debris (CD45 negative events). […]"}, "IκB in granulocytes": {"system": "IκB in granulocytes", "experiment": "Flow cytometry assay, whole blood pretreated with effector: IκB levels in granulocytes after LPS", "type": "cell-based, human", "settings": "whole blood pretreated with inhibitor, then LPS; 60 minutes time period", "protocol": "as §2, §3, §4"}, "[3]": {"system": "IκB in peripheral blood monocytes", "experiment": "TNFα induced degradation of IκB in monocytes from pretreated whole blood", "type": "cell-based, human", "settings": "TNFα activated monocytes, whole blood pretreated with inhibitor", "protocol": "(§5) Whole blood samples from normal human donors were collected. 100 μL aliquots of the whole blood were inserted into the bottom of 12×75 mm tubes. In order to reduce the potential for contamination of the sample with unfixed cells, blood was removed from the side of the tubes with a cotton swab. 1-2 μL of a proteasome effector was added to a first portion of the tubes and these tubes were incubated for 2 hours at 37° C. in a water bath. In this example, the proteasome effector was Bortezomib or MG-132, both proteasome inhibitors. […]\nas §1, with “software. […]” for “software.”"}, "[4]": {"system": "P-ERK in peripheral blood monocytes", "experiment": "TNFα induced ERK activation in monocytes from pretreated whole blood", "type": "cell-based, human", "settings": "TNFα activated monocytes, whole blood pretreated with inhibitor", "protocol": "as §5\nas §1, with “software. […]” for “software.”"}, "[5]": {"system": "proteasome activity (IκB degradation, ERK activation) in monocytes", "experiment": "Proteasome inhibition in blood monocytes of Multiple Myeloma patients receiving Bortezomib therapy (LPS stimulation ex vivo)", "design": "species or system human", "protocol": "(§6) Whole blood samples from eight Multiple Myeloma (MM) patients were obtained. For three of the MM patients (MM003-MM005), whole blood samples were tested with or without LPS activation (10 min stimulation at 37° C.) and the samples were processed and analyzed for IκB degradation and signaling pathway activation as described in Example 1.\n(§7) Blood samples from the 5 remaining MM patients samples were pretreated with Bortezomib or RP-171 (Carfilzomib, a covalent proteasome inhibitor) and then tested and analyzed with or without LPS activation (10 min LPS at 37 37° C.) for IκB degradation and signaling pathway activation as described in Example 1. […] All of the MM patients tested were receiving Bortezomib therapy."}, "[6]": {"system": "peripheral blood monocytes", "experiment": "IκB degradation agonists in whole blood: IκB degradation and signaling pathway activation in monocytes", "type": "cell-based, human", "settings": "for Pathways Activated: Target Cell Population: Monocytes", "protocol": "(§8) Whole blood samples from normal human donors were collected. 100 μL aliquots of the whole blood were inserted into the bottom of 12×75 mm tubes. In order to reduce the potential for contamination of the sample with unfixed cells, blood was removed from the side of the tubes with a cotton swab. 1-2 μL of a proteasome effector was added to a first portion of the tubes and these tubes were incubated for 2 hours at 37° C. in a water bath. In this example, the proteasome effector was Bortezomib or MG-132, both proteasome inhibitors. Following pretreatment with the proteasome effector, 2 μL of […] stock solution (100 ng) of an IκB degradation agonist was added to the tubes and the tubes were incubated from 1 minute to 60 minutes at 37° C. in a water bath. In this example, the agonist was lipopolysaccharide (LPS). A second portion of the tubes were treated with the IκB degradation agonist and no proteasome effector. 2 μL of an IκB degradation agonist was added to these tubes and the tubes were incubated from 1 minute to 60 minutes as described above. For control tubes, 2 μL of phosphate buffered saline (PBS) was added to the tubes and the tubes were incubated as described above.\n(§9) Following incubation, the cells were fixed and permeabilized with a PerFix-P® kit (Beckman Coulter, Inc., Brea. Calif.) according to the manufacturer's instructions. The fixed and permeabilized cells were then washed with 2 mL of Wash Buffer (PBS (w/o Ca++/Mg++) with 2% fetal bovine serum (FBS), sterile filtered (0.22 μm filter)) in the tubes and centrifuged at 500×g for 4 minutes. The cell pellet was resuspended in 2 mL of cold (4° C.) Wash Buffer, centrifuged at 500×g for 4 minutes, and the supernatant was aspirated.\n(§10) Following the above wash steps, the fixed and permeabilized cells were resuspended in 100 μL of cold Wash Buffer comprising antibodies to specific intracellular antigens (e.g., signaling targets including P-ERK, P-Akt, P-p38, P-SAPK, P-S6, and antibodies to IκB). The antibodies were labeled with different fluorochromes (e.g. fluorophores) to facilitate their-individual measurement of the intracellular antigens. In order to target specific cell populations in the assay, antibodies capable of differentiating cell populations within the blood sample were also included in some of the tubes. For example, anti-CD14 antibodies were included to specifically label monocytes, anti-CD3 antibodies or anti-CD19 antibodies were included to specifically label T or B-cells respectively, and/or anti-CD38/CD138 antibodies were included to specifically label plasma cells. The cells were incubated with the antibodies for 30 minutes at room temperature and then the cells were washed in 2 mL of cold Wash Buffer and centrifuged as described above. The supernatant was aspirated and the cell pellet was resuspended in 350 μL of Resuspension Buffer (PerFix-P® kit) and analyzed on a flow cytometer (GALLIOS™) using a protocol with defined population gates and series of dual parameter histograms. A CD45-KO vs. SS dual parameter histogram was collected and a gate around the leukocyte population based on the CD45+ fluorescence and SS characteristics was drawn to exclude debris (CD45 negative events). A minimum of 2,500 CD14+ events were collected. A stop count region was set from the CD14-PC7 vs. SS histogram gated on monocytes. Dual parameter histograms gated on the appropriate populations were created to measure the populations of interest. The collected flow cytometric data was analyzed using KALUZA™ software.\n(§11) Phosphorylation of signaling pathways activated by TNF-α, including ERK, Akt, and the ribosomal S6 protein, was monitored together with the degradation of IκB in peripheral blood WBCs. Whole blood samples were treated, activated, and processed as described in Example 1 and the degradation of IκB in peripheral blood cells was monitored by flow cytometry as described in Example 1. The IκB degradation agonist used in this example was TNF-α. […]"}, "[7]": {"system": "peripheral blood lymphocytes", "experiment": "IκB degradation agonists in whole blood: IκB degradation and signaling pathway activation in lymphocytes", "type": "cell-based, human", "settings": "for Pathways Activated: Target Cell Population: Lymphocytes (subpopulation)", "protocol": "as §8, §9, §10, §11"}, "granulocytes": {"system": "granulocytes", "experiment": "IκB degradation agonists in whole blood: IκB degradation and signaling pathway activation in granulocytes", "type": "cell-based, human", "protocol": "as §8, §9\nas §1, with “IκB). The antibodies were labeled with different fluorochromes (e.g. fluorophores) to facilitate their-individual measurement of the intracellular antigens.” for “IκB).”"}, "monocytes of MM patients": {"system": "monocytes of MM patients", "experiment": "LPS stimulation of monocytes in whole blood of Multiple Myeloma patients", "type": "cell-based, human", "settings": "10 min LPS", "protocol": "as §6, §7"}, "[8]": {"settings": "three MM patients (MM003-MM005), 10 min LPS at 37° C."}},
  "data": [
    {"molecule": "CC(C)C[C@H](NC(=O)[C@H](Cc1ccccc1)NC(=O)c1cnccn1)B(O)O", "note": "[Bortezomib]", "values": [
      {"measurement": "loss in measured IκB", "setting": "[1]", "value": "~10", "unit": "%"},
      {"measurement": "LPS induced degradation of IκB in lymphocytes", "setting": "[2]", "value": "inhibition of LPS induced degradation of IκB"},
      {"measurement": "degradation of IκB in granulocytes", "setting": "IκB in granulocytes", "value": "No significant degradation"},
      {"measurement": "degradation of IκB", "setting": "[3]", "value": "completely inhibited"},
      {"measurement": "activation of ERK", "setting": "[4]", "value": "completely inhibited"},
      {"measurement": "proteasome inhibition", "setting": "[5]; all MM patients tested, blood draw a week after the treatment", "value": "no proteasome inhibition was detected"},
      {"measurement": "inhibition of ERK activation following LPS stimulation", "setting": "[5]; [8]", "value": "no inhibition"},
      {"measurement": "inhibition of IκB degradation following LPS stimulation", "setting": "[5]; [8]", "value": "no inhibition"}
    ]},
    {"molecule": "lipopolysaccharide [LPS]", "values": [
      {"measurement": "Pathways Activated", "setting": "[6]; pathway: IκB > NFκB", "value": "IκB > NFκB"},
      {"measurement": "Pathways Activated", "setting": "[6]; pathway: P-p 38 MAP kinase", "value": "P-p 38 MAP kinase"},
      {"measurement": "Pathways Activated", "setting": "[6]; pathway: PI3 kinase > Akt", "value": "PI3 kinase > Akt"},
      {"measurement": "Pathways Activated", "setting": "[6]; pathway: SAP/JNK MAP kinase", "value": "SAP/JNK MAP kinase"},
      {"measurement": "Pathways Activated", "setting": "[6]; pathway: Tpl-2 > ERK/MAP kinase", "value": "Tpl-2 > ERK/MAP kinase"},
      {"measurement": "loss in measured IκB", "setting": "[6]; agonist alone, normal donors, monocytes, within 10 minutes of treatment", "value": "60-70%"},
      {"measurement": "Pathways Activated", "setting": "[7]; pathway: ERK MAP kinase (Tpl-2)", "value": "ERK MAP kinase (Tpl-2)"},
      {"measurement": "Pathways Activated", "setting": "[7]; pathway: IκB > NFκB", "value": "IκB > NFκB"},
      {"measurement": "Pathways Activated", "setting": "[7]; pathway: PI3 kinase > Akt", "value": "PI3 kinase > Akt"},
      {"measurement": "degradation of IκB in lymphocytes at 10 min", "setting": "[7]; agonist alone, 10 min", "value": "no significant degradation"},
      {"measurement": "Pathways Activated", "setting": "granulocytes; Target Cell Population: Granulocytes", "value": "P-p38 MAP kinase"},
      {"measurement": "degradation of IκB in granulocytes", "setting": "granulocytes; agonist alone", "value": "No significant degradation"},
      {"measurement": "loss of IκB", "setting": "monocytes of MM patients; six MM samples", "value": "60-70%"},
      {"measurement": "percent decrease of IκB MFI", "setting": "monocytes of MM patients; two MM samples", "value": 48, "unit": "%"}
    ]}
  ]
}
